Experimental findings from ChEMBL document CHEMBL1697781, “Assessment of the health effects of chemicals in humans: II. Construction of an adverse effects database for QSAR modeling” (Curr Drug Discov Technol, 2004) are described below.

Where only a bound is given, the exact number is not on record here.

Common to all, as to conditions: human
Series [1] deals with Hepatotoxicity. As to the kind of experiment: FDA HLAED, serum glutamic pyruvic transaminase (SGPT) increase.
The subject of series [2] is Hepatotoxicity. Nature of the series: FDA HLAED, lactate dehydrogenase (LDH) increase.
The subject of series [3] is Hepatotoxicity. Nature of the series: FDA HLAED, serum glutamic oxaloacetic transaminase (SGOT) increase.
The subject of series [4] is Hepatotoxicity. Nature of the series: FDA HLAED, gamma-glutamyl transferase (GGT) increase.
For series [5], the system named is Hepatotoxicity. As to the kind of experiment: FDA HLAED, liver enzyme composite activity.
In series [6] the test system is Hepatotoxicity. As to the kind of experiment: FDA HLAED, alkaline phosphatase increase.
For GGT Increase - Index Value in this document: reference of the scale not given here.
For LDH Increase - Index Value in this document: reference of the scale not given here.

Regarding `CC(CN(C)C)CN1c2ccccc2CCc2ccccc21` (configuration not stated) [TRIMIPRAMINE], in the series with Hepatotoxicity [1], the “SGPT Increase - Activity Score” value is on record as “Inactive”, the “SGPT Increase - Index Value” turned out to be 0 and the “SGPT Increase - Number of Reports” value is recorded as below 4. For the same molecule, in the series on Hepatotoxicity [2], the “LDH Increase - Activity Score” value was “Inactive”, the “LDH Increase - Index Value” turned out to be 0 and the “LDH Increase - Number of Reports” value is below 4. In the series with Hepatotoxicity [3], the “SGOT Increase - Activity Score” value was “Inactive”, the “SGOT Increase - Index Value” is 0 and the “SGOT Increase - Number of Reports” value is recorded as below 4. Moreover, in the series on Hepatotoxicity [4], the “GGT Increase - Activity Score” value is on record as “Inactive”, the “GGT Increase - Index Value” was 0 and the “GGT Increase - Number of Reports” value is below 4. Also, in the series with Hepatotoxicity [5], the “Composite Activity - Active” value is 0, the “Composite Activity - Marginal” value worked out at 0 and the “Composite Activity - Score” value is “Inactive”. Further, in the series on Hepatotoxicity [6], the “Alkaline Phosphatase Increase - Activity Score” value was “Inactive”, the “Alkaline Phosphatase Increase - Index Value” turned out to be 0 and the “Alkaline Phosphatase Increase - Number of Reports” value is given as below 4.

As for `FC(F)OC(F)C(F)(F)F` (configuration not stated), in the series with Hepatotoxicity [1], the “SGPT Increase - Activity Score” value is given as “Inactive”, the “SGPT Increase - Index Value” came to 0.8 and the “SGPT Increase - Number of Reports” value is below 4. Also, in the series on Hepatotoxicity [2], the “LDH Increase - Activity Score” value is given as “Inactive”, the “LDH Increase - Index Value” stood at 0.5 and the “LDH Increase - Number of Reports” value is on record as below 4. In the series with Hepatotoxicity [3], the “SGOT Increase - Activity Score” value is recorded as “Inactive”, the “SGOT Increase - Index Value” was 1.3 and the “SGOT Increase - Number of Reports” value is on record as “>= 4”. For the same molecule, in the series with Hepatotoxicity [4], the “GGT Increase - Activity Score” value was “Inactive”, the “GGT Increase - Index Value” is 0.5 and the “GGT Increase - Number of Reports” value was below 4. In addition, in the series with Hepatotoxicity [5], the “Composite Activity - Active” value is 0, the “Composite Activity - Marginal” value is 0 and the “Composite Activity - Score” value was “Inactive”. Further, in the series on Hepatotoxicity [6], the “Alkaline Phosphatase Increase - Activity Score” value is “Inactive”, the “Alkaline Phosphatase Increase - Index Value” was determined as 0.3 and the “Alkaline Phosphatase Increase - Number of Reports” value is below 4.

For the molecule `C[C@]12CC[C@@H]3c4ccc(OC(=O)Cc5ccc(N(CCCl)CCCl)cc5)cc4CC[C@H]3[C@@H]1CC[C@@H]2OC(=O)Cc1ccc(N(CCCl)CCCl)cc1` [ESTRADIOL MUSTARD], in the series on Hepatotoxicity [1], the “SGPT Increase - Activity Score” value is given as “Inactive”, the “SGPT Increase - Index Value” is 0 and the “SGPT Increase - Number of Reports” value is on record as below 4. In the series with Hepatotoxicity [2], the “LDH Increase - Activity Score” value is “Inactive”, the “LDH Increase - Index Value” was 0 and the “LDH Increase - Number of Reports” value is below 4. In the series on Hepatotoxicity [3], the “SGOT Increase - Activity Score” value is reported as “Inactive”, the “SGOT Increase - Index Value” is 0 and the “SGOT Increase - Number of Reports” value was below 4. For the same molecule, in the series on Hepatotoxicity [4], the “GGT Increase - Activity Score” value was “Inactive”, the “GGT Increase - Index Value” is 0 and the “GGT Increase - Number of Reports” value was below 4. In the series on Hepatotoxicity [5], the “Composite Activity - Active” value was found to be 0, the “Composite Activity - Marginal” value was determined as 0 and the “Composite Activity - Score” value was “Inactive”. Further, in the series with Hepatotoxicity [6], the “Alkaline Phosphatase Increase - Activity Score” value is reported as “Inactive”, the “Alkaline Phosphatase Increase - Index Value” turned out to be 0 and the “Alkaline Phosphatase Increase - Number of Reports” value is below 4.

With `CC[C@H]1OC(=O)[C@H](C)[C@@H](O[C@H]2C[C@@](C)(OC)[C@@H](O)[C@H](C)O2)[C@H](C)[C@@H](O[C@@H]2O[C@H](C)C[C@H](N(C)C)[C@H]2O)[C@](C)(O)C[C@@H](C)[C@@H]2N[C@@H](COCCOC)O[C@H]([C@H]2C)[C@]1(C)O` [DIRITHROMYCIN], in the series with Hepatotoxicity [1], the “SGPT Increase - Activity Score” value is given as “Inactive”, the “SGPT Increase - Index Value” is reported as 5.4 and the “SGPT Increase - Number of Reports” value is recorded as below 4. For the same molecule, in the series with Hepatotoxicity [2], the “LDH Increase - Activity Score” value is recorded as “Inactive”, the “LDH Increase - Index Value” was found to be 0 and the “LDH Increase - Number of Reports” value is below 4. In addition, in the series with Hepatotoxicity [3], the “SGOT Increase - Activity Score” value is recorded as “Inactive”, the “SGOT Increase - Index Value” is reported as 5.4 and the “SGOT Increase - Number of Reports” value is recorded as below 4. Also, in the series on Hepatotoxicity [4], the “GGT Increase - Activity Score” value is on record as “Inactive”, the “GGT Increase - Index Value” turned out to be 2.7 and the “GGT Increase - Number of Reports” value was below 4. Further, in the series on Hepatotoxicity [5], the “Composite Activity - Active” value is listed as 0, the “Composite Activity - Marginal” value is 0 and the “Composite Activity - Score” value is given as “Inactive”. Further, in the series on Hepatotoxicity [6], the “Alkaline Phosphatase Increase - Activity Score” value is “Inactive”, the “Alkaline Phosphatase Increase - Index Value” turned out to be 0 and the “Alkaline Phosphatase Increase - Number of Reports” value was below 4.

Consider `C[C@H](CS)C(=O)N1CCC[C@H]1C(=O)O` [CAPTOPRIL], for which, in the series on Hepatotoxicity [1], the “SGPT Increase - Activity Score” value is “Inactive”, the “SGPT Increase - Index Value” was 0.7 and the “SGPT Increase - Number of Reports” value is “>= 4”. In the series with Hepatotoxicity [2], the “LDH Increase - Activity Score” value is recorded as “Inactive”, the “LDH Increase - Index Value” stood at 0.4 and the “LDH Increase - Number of Reports” value is below 4. Moreover, in the series on Hepatotoxicity [3], the “SGOT Increase - Activity Score” value was “Inactive”, the “SGOT Increase - Index Value” worked out at 1.5 and the “SGOT Increase - Number of Reports” value is given as “>= 4”. For the same molecule, in the series with Hepatotoxicity [4], the “GGT Increase - Activity Score” value is “Inactive”, the “GGT Increase - Index Value” is on record as 0 and the “GGT Increase - Number of Reports” value was below 4. Besides, in the series with Hepatotoxicity [5], the “Composite Activity - Active” value stood at 0, the “Composite Activity - Marginal” value stood at 0 and the “Composite Activity - Score” value is “Inactive”. For the same molecule, in the series with Hepatotoxicity [6], the “Alkaline Phosphatase Increase - Activity Score” value was “Inactive”, the “Alkaline Phosphatase Increase - Index Value” is 1.1 and the “Alkaline Phosphatase Increase - Number of Reports” value was “>= 4”.

As for `CC(CCc1ccccc1)NCC(O)c1ccc(O)c(C(N)=O)c1` (configuration not stated) [LABETALOL], in the series with Hepatotoxicity [1], the “SGPT Increase - Activity Score” value is on record as “Inactive”, the “SGPT Increase - Index Value” stood at 1.1 and the “SGPT Increase - Number of Reports” value was “>= 4”. In addition, in the series with Hepatotoxicity [2], the “LDH Increase - Activity Score” value is “Inactive”, the “LDH Increase - Index Value” was found to be 0.4 and the “LDH Increase - Number of Reports” value was below 4. Besides, in the series on Hepatotoxicity [3], the “SGOT Increase - Activity Score” value is given as “Marginally Active”, the “SGOT Increase - Index Value” stood at 3 and the “SGOT Increase - Number of Reports” value was “>= 4”. Also, in the series with Hepatotoxicity [4], the “GGT Increase - Activity Score” value is recorded as “Inactive”, the “GGT Increase - Index Value” is listed as 0 and the “GGT Increase - Number of Reports” value was below 4. Further, in the series with Hepatotoxicity [5], the “Composite Activity - Active” value came out at 0, the “Composite Activity - Marginal” value is given as 1 and the “Composite Activity - Score” value was “Inactive”. Also, in the series on Hepatotoxicity [6], the “Alkaline Phosphatase Increase - Activity Score” value was “Inactive”, the “Alkaline Phosphatase Increase - Index Value” worked out at 0.9 and the “Alkaline Phosphatase Increase - Number of Reports” value is reported as “>= 4”.

In the case of `CCCCC(=O)O[C@H]1CC[C@H]2[C@@H]3CCc4cc(O)ccc4[C@H]3CC[C@]12C` [ESTRADIOL VALERATE], in the series on Hepatotoxicity [1], the “SGPT Increase - Activity Score” value was “Inactive”, the “SGPT Increase - Index Value” amounted to 2.1 and the “SGPT Increase - Number of Reports” value is recorded as “>= 4”. In addition, in the series on Hepatotoxicity [2], the “LDH Increase - Activity Score” value is “Inactive”, the “LDH Increase - Index Value” was 1.2 and the “LDH Increase - Number of Reports” value is listed as “>= 4”. For the same molecule, in the series with Hepatotoxicity [3], the “SGOT Increase - Activity Score” value is “Inactive”, the “SGOT Increase - Index Value” was 2.8 and the “SGOT Increase - Number of Reports” value is on record as “>= 4”. Also, in the series with Hepatotoxicity [4], the “GGT Increase - Activity Score” value was “Inactive”, the “GGT Increase - Index Value” is given as 0.3 and the “GGT Increase - Number of Reports” value is below 4. Moreover, in the series with Hepatotoxicity [5], the “Composite Activity - Active” value turned out to be 0, the “Composite Activity - Marginal” value was determined as 0 and the “Composite Activity - Score” value is reported as “Inactive”. In the series on Hepatotoxicity [6], the “Alkaline Phosphatase Increase - Activity Score” value was “Inactive”, the “Alkaline Phosphatase Increase - Index Value” is given as 1.5 and the “Alkaline Phosphatase Increase - Number of Reports” value is “>= 4”.

As for `CCOC(=O)OC(C)OC(=O)[C@@H]1N2C(=O)[C@@H](NC(=O)[C@H](N)c3ccccc3)[C@H]2SC1(C)C` (some centres not stated) [BACAMPICILLIN], in the series with Hepatotoxicity [1], the “SGPT Increase - Activity Score” value was “Inactive”, the “SGPT Increase - Index Value” is listed as 0 and the “SGPT Increase - Number of Reports” value is listed as below 4. Moreover, in the series on Hepatotoxicity [2], the “LDH Increase - Activity Score” value is reported as “Inactive”, the “LDH Increase - Index Value” came to 0 and the “LDH Increase - Number of Reports” value is listed as below 4. Moreover, in the series with Hepatotoxicity [3], the “SGOT Increase - Activity Score” value is recorded as “Inactive”, the “SGOT Increase - Index Value” amounted to 0 and the “SGOT Increase - Number of Reports” value is below 4. Further, in the series on Hepatotoxicity [4], the “GGT Increase - Activity Score” value is given as “Inactive”, the “GGT Increase - Index Value” is 0 and the “GGT Increase - Number of Reports” value is below 4. For the same molecule, in the series on Hepatotoxicity [5], the “Composite Activity - Active” value stood at 0, the “Composite Activity - Marginal” value came to 0 and the “Composite Activity - Score” value was “Inactive”. Moreover, in the series on Hepatotoxicity [6], the “Alkaline Phosphatase Increase - Activity Score” value is “Inactive”, the “Alkaline Phosphatase Increase - Index Value” came out at 0 and the “Alkaline Phosphatase Increase - Number of Reports” value is below 4.

As for `CO/N=C(\C(=O)N[C@@H]1C(=O)N2C(C(=O)O)=CCS[C@H]12)c1csc(N)n1` [CEFTIZOXIME], in the series with Hepatotoxicity [1], the “SGPT Increase - Activity Score” value is on record as “Active”, the “SGPT Increase - Index Value” is listed as 4 and the “SGPT Increase - Number of Reports” value is given as “>= 4”. In the series with Hepatotoxicity [2], the “LDH Increase - Activity Score” value is on record as “Inactive”, the “LDH Increase - Index Value” was 0.3 and the “LDH Increase - Number of Reports” value is given as below 4. Moreover, in the series with Hepatotoxicity [3], the “SGOT Increase - Activity Score” value was “Active”, the “SGOT Increase - Index Value” amounted to 7.8 and the “SGOT Increase - Number of Reports” value is “>= 4”. Further, in the series with Hepatotoxicity [4], the “GGT Increase - Activity Score” value is “Inactive”, the “GGT Increase - Index Value” turned out to be 0 and the “GGT Increase - Number of Reports” value is on record as below 4. In addition, in the series on Hepatotoxicity [5], the “Composite Activity - Active” value was 2, the “Composite Activity - Marginal” value turned out to be 0 and the “Composite Activity - Score” value was “Active”. Besides, in the series with Hepatotoxicity [6], the “Alkaline Phosphatase Increase - Activity Score” value is “Inactive”, the “Alkaline Phosphatase Increase - Index Value” came to 2.9 and the “Alkaline Phosphatase Increase - Number of Reports” value is reported as “>= 4”.
